Values of other authors as cited in patent US5654277A, “Peptides having thrombospondin-like activity and their therapeutic use” (W. R. Grace & Co.-Conn., priority 1995, dated 1997).

Test system: B16-F10 murine melanoma cells
Conditions: C57BL/6 mice

Row | Substance | inhibition of lung colony formation / metastasis
1 | GRGDS | dramatically inhibited the formation of lung colonies
2 | YIGSR | dramatically inhibited B16-F10 melanoma cell metastasis
